# Data as given in paper PMC12588090, “C6-Alkoxy substituted penicillins are potent non-covalently binding inhibitors of the SARS-CoV-2 main protease” (RSC Medicinal Chemistry, 2025).
# Several values for one entry are separate records, joined by “and”; a condition that tells them apart may be missing. Equal values may be shown once. Entries after “also recorded” stand apart in the source; their conditions may differ. Read-outs that look alike come from different tables or passages of the source.
# How the values were obtained:
# [1] = target: T1, SARS-CoV-2 M^pro (Severe acute respiratory syndrome coronavirus 2, UniProt P0DTD1); experiment: SPE-MS M^pro inhibition assay; type: biochemical; conditions: for increase in M^pro inhibition potency compared to (S)-sulfoxide 22: ratio of IC50 values
# [2] = target: T1, SARS-CoV-2 M^pro; type: binding; conditions: for covalent reaction with / modification of M^pro / species with mass shifts corresponding to potential acyl–enzyme complexes: β-lactam 15 μM; for covalent reaction with / modification of M^pro: M^pro 3.0 μM (5 : 1), denaturing MS, 20 mM HEPES pH 7.5; for covalent reaction with / modification of M^pro / mass shift of concentration-dependent M^pro adduct / species with mass shifts corresponding to potential acyl–enzyme complexes: >15 h incubation; for mass shift of concentration-dependent M^pro adduct: intensity rises with penicillin derivative : M^pro ratio; for species with mass shifts corresponding to potential acyl–enzyme complexes: M^pro 3.0 μM
# [3] = system: human leukocyte elastase (HLE); design: method as in doi:10.1016/S0960-894X(01)80940-9; conditions: cited from earlier work
# [4] = target: T1, SARS-CoV-2 M^pro; conditions: read-out: IC50 (reported) (converted), cited from earlier work
# [5] = SPE-MS, M^pro 0.05 μM, substrate 2.0 μM, n = 3, mean ± SD, freshly prepared DMSO stocks for 8, read-out: IC50
# [6] = SPE-MS, M^pro 0.05 μM, substrate 2.0 μM, n = 3, mean ± SD, freshly prepared DMSO stocks for 8
# [7] = IC50, SPE-MS, M^pro 0.05 μM, substrate 2.0 μM, n = 3, mean ± SD, freshly prepared DMSO stocks for 8
# [8] = literature value given in Table 1
compound,measurement,setting,value
CCO[C@@]1(NC(=O)COc2ccccc2)C(=O)N2[C@@H](C(=O)OCc3ccccc3)C(C)(C)S(=O)(=O)[C@@H]21 [10a],IC50,[1]; [5],5.8 ± 1.9 µM
CC1(C)S[C@H]2N(C(=O)[C@]2(NC(=O)COc2ccccc2)OCc2ccccc2)[C@H]1C(=O)OCc1ccccc1 [16c],IC50,[1]; [6],inactive
same,IC50,[1]; [5],> 50 µM
CO[C@H]1C(=O)N2[C@@H]1SC(C)(C)[C@@H]2C(=O)OCc1ccccc1 [26a],IC50,[1]; [5],1.2 ± 0.1 µM
same,covalent reaction with / modification of M^pro,[2],in no case were substantial amounts of species corresponding to covalent modification observed; also recorded: did not evidence covalent modification
CCO[C@H]1C(=O)N2[C@@H]1SC(C)(C)[C@@H]2C(=O)OCc1ccccc1 [26b],IC50,[1]; [5],0.8 ± 0.1 µM
CC(C)O[C@H]1C(=O)N2[C@@H]1SC(C)(C)[C@@H]2C(=O)OCc1ccccc1 [26c],IC50,[1]; [5],47 ± 13 µM
CC(C)(C)O[C@H]1C(=O)N2[C@@H]1SC(C)(C)[C@@H]2C(=O)OCc1ccccc1 [26d],IC50,[1]; [5],39 ± 9 µM
CC1(C)SC2C(Oc3ccccc3)C(=O)N2C1C(=O)OCc1ccccc1 (stereo not shown) [26e],IC50,[1]; [5],> 50 µM
CC1(C)SC2C(OCc3ccccc3)C(=O)N2C1C(=O)OCc1ccccc1 (stereo not shown) [26f],IC50,[1]; [5],7.3 ± 1.4 µM
CO[C@H]1C(=O)N2[C@@H](C(=O)OCc3ccccc3)C(C)(C)S(=O)(=O)[C@H]12 [27a],IC50,[1]; [7],7.7 ± 4.9 µM
same,covalent reaction with / modification of M^pro,[2],in no case were substantial amounts of species corresponding to covalent modification observed; also recorded: did not evidence covalent modification
CCO[C@H]1C(=O)N2[C@@H](C(=O)OCc3ccccc3)C(C)(C)S(=O)(=O)[C@H]12 [27b],IC50,[1]; [5],44 ± 4 µM
same,inhibition of HLE,[3],covalent inhibitors
CC(C)O[C@H]1C(=O)N2[C@@H](C(=O)OCc3ccccc3)C(C)(C)S(=O)(=O)[C@H]12 [27c],IC50,[1]; [5],19 ± 14 µM
CC(C)(C)O[C@H]1C(=O)N2[C@@H](C(=O)OCc3ccccc3)C(C)(C)S(=O)(=O)[C@H]12 [27d],IC50,[1]; [5],21 ± 3 µM
CC1(C)C(C(=O)OCc2ccccc2)N2C(=O)C(Oc3ccccc3)C2S1(=O)=O (stereo not shown) [27e],IC50,[1]; [5],> 50 µM
CC1(C)C(C(=O)OCc2ccccc2)N2C(=O)C(OCc3ccccc3)C2S1(=O)=O (stereo not shown) [27f],IC50,[1]; [5],35 ± 2 µM
same,inhibition of HLE,[3],covalent inhibitors
CC1(C)[C@H](C(=O)OCc2ccccc2)N2C(=O)[C@](NC(=O)COc3ccccc3)(O[C@@H]3CCNC3=O)[C@H]2S1(=O)=O [C00006],IC50,[1]; [5],5.3 ± 1.6 µM
CC1(C)[C@H](C(=O)OCc2ccccc2)N2C(=O)[C@](NC(=O)COc3ccccc3)(OCc3ccccc3)[C@H]2S1(=O)=O [C00008],IC50,[1]; [5],8.3 ± 2.6 µM
"CC1(C)S[C@@H]2[C@H](NC(=O)Cc3ccccc3)C(=O)N2[C@H]1C(=O)O [C00011, reference compound]",IC50,[1]; [7],> 50 µM
same,IC50,[4]; literature value in Table 2,> 50 µM
"CC1(C)[C@H](C(=O)OCc2ccccc2)N2C(=O)[C@@H](NC(=O)COc3ccccc3)[C@H]2S1(=O)=O [compound 1, penicillin V sulfone benzyl ester]",IC50,[1]; [5],2.9 ± 0.4 µM
same,IC50,[4]; [8],~6.6 µM
COC1(NC(=O)Cc2ccccc2)C(=O)N2C1[S+]([O-])C(C)(C)C2C(=O)OCc1ccc([N+](=O)[O-])cc1 (stereo not shown) [compound 2],IC50,[1]; [5],0.5 ± 0.1 µM
same,increase in M^pro inhibition potency compared to (S)-sulfoxide 22,[1],~9 fold
same,mass shift of M^pro adduct,"[2]; 5 : 1 inhibitor : M^pro, after 45 min, low levels",+32 Da
same,mass shift of M^pro adduct,"[2]; 5 : 1 inhibitor : M^pro, formed within 15 min, increasing intensity",+498 Da
same,mass shift of M^pro adduct,"[2]; 5 : 1 inhibitor : M^pro, t = 0 min / initial, weak intensity",+515 Da
same,mass shift of M^pro adduct,"[2]; 10:1 inhibitor : M^pro, after 45 min, low intensity",+32 Da
same,mass shift of M^pro adduct,"[2]; 10:1 inhibitor : M^pro, increasing intensity over 45 min",+498 Da
same,mass shift of M^pro adduct,"[2]; 10:1 inhibitor : M^pro, initial formation",+515 Da
same,mass shift of concentration-dependent M^pro adduct,[2],+32 Da
same,covalent reaction with / modification of M^pro,[2],in no case were substantial amounts of species corresponding to covalent modification observed
same,species with mass shifts corresponding to potential acyl–enzyme complexes,[2],low levels
same,IC50,[4]; literature value in Table 2,~3.5 µM
"CO[C@@]1(NC(=O)Cc2ccccc2)C(=O)N2[C@@H](C(=O)OCc3ccccc3)C(C)(C)[S@@+]([O-])[C@@H]21 [compound 3, C6-methoxy (R)-sulfoxide penicillin G benzyl ester]",IC50,[1]; [5],~0.8 µM and 0.8 µM
same,increase in M^pro inhibition potency compared to (S)-sulfoxide 22,[1],~9 fold
same,mass shift of concentration-dependent M^pro adduct,[2],+32 Da
same,covalent reaction with / modification of M^pro,[2],in no case were substantial amounts of species corresponding to covalent modification observed
same,species with mass shifts corresponding to potential acyl–enzyme complexes,[2],low levels
CC1(C)S[C@@H]2[C@H](NC(=O)COc3ccccc3)C(=O)N2[C@H]1C(=O)OCc1ccccc1 [compound 5],IC50,[1]; [7],> 50 µM
same,IC50,[1]; [6],no inhibition in the tested concentration range
same,IC50,[4]; [8],> 50 µM
CC1(C)C(C(=O)OCc2ccccc2)N2C(=O)C(NC(=O)COc3ccccc3)C2[S+]1[O-] (stereo not shown) [compound 6],IC50,[1]; [5],6.3 ± 1 µM
same,IC50,[4]; [8],~23 µM
COC1(NC(=O)COc2ccccc2)C(=O)N2C1[S+]([O-])C(C)(C)C2C(=O)OCc1ccccc1 (stereo not shown) [compound 7],IC50,[1]; [5],~2.3 µM and 2.3 µM
same,covalent reaction with / modification of M^pro,[2],in no case were substantial amounts of species corresponding to covalent modification observed; also recorded: low levels of reaction
CO[C@@]1(NC(=O)COc2ccccc2)C(=O)N2[C@@H](C(=O)OCc3ccccc3)C(C)(C)S[C@@H]21 [compound 8],IC50,[1]; [6],no inhibition in the tested concentration range
same,IC50,[1]; [5],> 50 µM
same,IC50,"[1]; additional replicates using premade DMSO stock solutions, read-out: IC50",~5 µM
CO[C@@]1(NC(=O)COc2ccccc2)C(=O)N2[C@@H](C(=O)OCc3ccccc3)C(C)(C)S(=O)(=O)[C@@H]21 [compound 9],IC50,[1]; [6],inactive
same,IC50,[1]; [5],> 50 µM
same,covalent reaction with / modification of M^pro,[2],in no case were substantial amounts of species corresponding to covalent modification observed
CC1(C)S[C@@H]2[C@H](NC(=O)Cc3ccccc3)C(=O)N2[C@H]1C(=O)OCc1ccccc1 [compound 18],IC50,[1]; [5],> 50 µM
CC1(C)[C@H](C(=O)OCc2ccccc2)N2C(=O)[C@@H](NC(=O)Cc3ccccc3)[C@H]2S1(=O)=O [compound 19],IC50,[1]; [5],> 50 µM
CO[C@@]1(NC(=O)Cc2ccccc2)C(=O)N2[C@@H](C(=O)OCc3ccccc3)C(C)(C)S(=O)(=O)[C@@H]21 [compound 20],IC50,[1]; [5],11 ± 4 µM
CC1(C)C(C(=O)OCc2ccccc2)N2C(=O)C(NC(=O)Cc3ccccc3)C2[S+]1[O-] (stereo not shown) [compound 21],IC50,[1]; [5],> 50 µM
CO[C@@]1(NC(=O)Cc2ccccc2)C(=O)N2[C@@H](C(=O)OCc3ccccc3)C(C)(C)[S+]([O-])[C@@H]21 (stereo partly shown) [compound 22],IC50,[1]; [5],~7.3 µM and 7.3 µM
same,covalent reaction with / modification of M^pro,[2],no evidence for covalent M^pro modification
CC1(C)[C@H](C(=O)OCc2ccccc2)N2C(=O)[C@@H](NC(=O)Cc3ccccc3)[C@H]2[S@+]1[O-] [compound 23],IC50,[1]; [5],> 50 µM
"CO[C@@]1(NC(=O)Cc2ccccc2)C(=O)N2[C@@H](C(=O)O)C(C)(C)S[C@@H]21 [compound 24, C6-methoxypenicillin G acid]",IC50,"[1]; moderate inhibition potency observed in some cases (variable values, possible instability in DMSO), read-out: IC50",15 ± 8 µM
CO[C@@]1(NC(=O)Cc2ccccc2)C(=O)N2[C@@H](C(=O)OCc3ccccc3)C(C)(C)S[C@@H]21 [compound 25],IC50,[1]; [5],11 ± 6 µM
